Structures can show the parent of a compound that is named as a salt. Where two headings read alike, the source gives them in different places.
Legend:
[1] = molecular target: Tau binding to purified human brain membranes (Homo sapiens, UniProt P10636); experiment: Inhibition of Tau binding to purified human brain cell membranes (ELISA)
Protocol: (§1) Purified human brain cell membranes were prepared by differential centrifugation as follows. Five grams of frozen human brain postmortem tissue (obtained from University of Kentucky Alzheimer's Disease Center Tissue Bank) was homogenized in 50 ml HEPES-Buffered sucrose (0.32M sucrose, 4 mM HEPES pH7.4, protease inhibitors) with a motor driven glass-teflon homogenizer. After removing nuclear and cell debris by centrifugation of homogenates at 1,000×g for 10 min at 4 degree Celsius, post-nuclear supernatant was centrifuged at 100,000×g for 30 minutes to yield the crude membrane pellet. Crude membrane pellet was re-suspended in 0.32M sucrose, then centrifuged again at 100,000×g for 30 minutes to yield washed membrane pellet. Membrane pellet was resuspended in sterile PBS (pH7.4), quickly frozen, and kept in aliquots at −80 degrees Celsius. This preparation contains human brain cell membranes. Protein concentration was measured with BCA protein assay kit (Pierce Cat. No. 23227). Purified brain membranes were diluted to 0.01 mg/ml in PBS (pH 7.4) and then added to a 96 well polystyrene ELISA plate (NUNC Cat. No. 449824; 100 μl per well). Plates were incubated Over Night (ON) at 4 degrees Celsius. Following the incubation, the plate was washed consecutively, by immersion, with de-ionized water and PBS (pH 7.4). The ELISA plate was then blocked with nonfat milk (2%, 200 μl per well) for 2 hours at Room Temperature (RT). Following blocking, the plate was washed with de-ionized water then PBS (pH 7.4). GBAPs were dissolved and diluted in PBS (pH 6.5, supplemented with 0.1% BSA) at desired concentrations, added to the ELISA plates coated with brain membranes (100 μl per well) and incubated for 2 hours at RT with gentle shaking. Following incubation, the plate was washed with de-ionized water and three times with PBS (pH 6.5) plus Tween. Bound GBAP was detected by a monoclonal antibody specific for that GBAP, followed by incubation with secondary antibody conjugated to horseradish peroxidase (HRP). Antibody was diluted in PBS (pH6.5 supplemented with 1% BSA). Following each incubation with antibody, the plate was washed with de-ionized water and three times with PBS (pH6.5) wash buffer containing 0.1% Tween. The peroxidase substrate chromogen, TMB (Dako Cat. No. S1599) was added (100 μl per well) to the ELISA plate and incubated at room temperature. After 5 minutes ELISA Stop Solution (hydrochloric acid 1N, sulfuric acid 3N) was added (100 μl per well) to stop the peroxidase catalyzed colorimetric reaction. The Optical Density of the samples was measured at 450 nm using an ELISA plate reader (BioTek Synergy H1). Following color development, the % inhibition compared to control was determined. IC-50s were calculated using GraphPad Prism software.
The assay was performed as described in Example 49, with the following modifications.
Following to coating the plates with purified human brain cell membranes, plates were washed as described. The compounds were dissolved in DMSO at 10 mM final concentration and further diluted prior to assay. DMSO concentration in the screening well was up to 2%. Individual compounds were co-incubated with Tau on plates coated with purified human brain membranes. Tau purchased from rPeptide (Cat. No. T1001) was dissolved in DMSO (Sigma Cat. No. D2650), quickly frozen and kept in aliquots at −80 degrees Celsius. Tau dissolved in PBS (pH 6.5, supplemented with BSA, 0.1%) was added to the ELISA plate (100 μl per well) and incubated for 2 hours at RT with gentle shaking. Following the incubation, the plate was washed with de-ionized water and three times with PBS (pH 6.5) plus Tween. Bound Tau was detected by anti-Tau Monoclonal Antibody D-8 (Santa Cruz Cat. No. sc-166060), followed by secondary anti-IgG antibody conjugated to HRP (R&D System, Cat. No. HAF007). Following to color development with TMB, as described in Example 49, the Optical Density of the samples was measured at 450 nm using an ELISA plate reader. […]

[2] = molecular target: T1, Amyloid-beta(1-40) binding to purified human brain membranes (Homo sapiens, UniProt P05067); experiment: Inhibition of Amyloid-beta(1-40) binding to purified human brain cell membranes (ELISA); details: Abeta(1-40), read-out: Abeta40/Membrane Activity (IC-50)
T1 construct: Beta-amyloid (1-40) from rPeptide (Cat No. A1153) was dissolved in DMSO; purchased rPeptide A1153
Protocol: as §1
The assay was performed as described in Example 49, with the following modifications. Following to coating the plates with purified human brain cell membranes, plates were washed as described. The compounds were dissolved in DMSO at 10 mM final concentration and further diluted prior to assay. DMSO concentration in the screening well was up to 2%. Individual compounds were co-incubated with Beta-amyloid peptides on plates coated with purified human brain membranes. Beta-amyloid (1-42) oligomers were prepared as described in Example 2. Beta-amyloid (1-40) from rPeptide (Cat No. A1153) was dissolved in DMSO, quickly frozen and kept in aliquots at −80 degrees Celsius. Beta-amyloid (1-42) oligomers or Beta-amyloid (1-40) dissolved in PBS (pH 6.5, supplemented with BSA, 0.1%) were added to the ELISA plate (100 μl per well) and incubated for 2 hours at RT with gentle shaking. Following the incubation, the plate was washed with de-ionized water and three times with PBS (pH 6.5) plus Tween. […]

[3] = Tau, purified human brain membranes, read-out: Tau/Membrane Activity (IC-50)

Chain of Tau binding to purified human brain membranes (P10636 with tags, fused parts or gaps): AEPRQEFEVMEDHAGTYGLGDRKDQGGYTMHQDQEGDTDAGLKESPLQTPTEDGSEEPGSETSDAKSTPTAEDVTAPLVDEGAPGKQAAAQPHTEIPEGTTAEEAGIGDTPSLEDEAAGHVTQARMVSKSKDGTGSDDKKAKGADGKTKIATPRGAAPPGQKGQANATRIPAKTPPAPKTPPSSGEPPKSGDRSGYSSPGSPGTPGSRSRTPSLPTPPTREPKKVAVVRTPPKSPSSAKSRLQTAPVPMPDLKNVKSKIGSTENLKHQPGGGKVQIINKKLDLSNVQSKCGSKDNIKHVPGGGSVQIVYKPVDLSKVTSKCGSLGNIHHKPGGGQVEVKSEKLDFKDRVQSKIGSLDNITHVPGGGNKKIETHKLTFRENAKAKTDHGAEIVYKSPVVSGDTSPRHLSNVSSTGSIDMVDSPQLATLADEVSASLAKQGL
T1 sequence (P05067 672-711): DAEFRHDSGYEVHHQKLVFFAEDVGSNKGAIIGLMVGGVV

Row | SMILES | IC50 [1] [µM] | IC50 [1, 3] [µM] | IC50 [2] [µM]
1 | COc1ccc2c(NN=Cc3ccc(-n4ccnc4)c(C)c3)ccnc2c1 [Compound 12, 4-(2-(4-(1H-imidazol-1-yl)-3-methylbenzylidene)hydrazineyl)-7-methoxyquinoline] | 29.9 | – | –
2 | Cc1ncn(-c2ncc(Nc3ncnc4cc(Cl)ccc34)cc2O)c1C [Compound 40, 5-((7-chloroquinazolin-4-yl)amino)-2-(4,5-dimethyl-1H-imidazol-1-yl)pyridin-3-ol phosphoric acid salt] | 65.1 | – | –
3 | C/C(=N\Nc1nncc2cc(Cl)ccc12)c1ccc(-n2cc(C)nc2C)nc1 [Compound 24, (E)-6-chloro-1-(2-(1-(6-(2,4-dimethyl-1H-imidazol-1-yl)pyridin-3-yl)ethylidene)hydrazineyl)phthalazine] | – | 2.56 | 24.5
4 | Clc1ccc2c(N/N=C/c3ccc(-n4ccnc4)cc3)ccnc2c1 [Compound 38, 4-(2-(4-(1H-imidazol-1-yl)benzylidene)hydrazineyl)-7-chloroquinoline dihydrochloride] | 4.86 | – | 0.36
5 | Fc1ccc2c(N/N=C/c3ccc(-n4ccnc4)cc3)ccnc2c1 [Compound 5, (E)-4-(2-(4-(1H-imidazol-1-yl)benzylidene)hydrazinyl)-7-fluoroquinoline] | 0.84 | – | –
6 | Fc1ccc2c(N/N=C/c3ccc(CN4CCOCC4)cc3)ccnc2c1 [Compound 6, (E)-4-(4-((2-(7-fluoroquinolin-4-yl)hydrazono)methyl)benzyl)morpholine] | 0.63 | – | –
7 | CCN1CCN(c2ccc(Nc3ccnc4cc5ccccc5cc34)cc2)CC1 [Compound 39, N-(4-(4-ethylpiperazin-1-yl)phenyl)benzo[g]quinolin-4-amine] | 54.1 | – | 1.46
8 | COc1cc2nccc(NN=Cc3ccc(-n4ccnc4)c(C)c3)c2cc1OC [Compound 11, 4-(2-(4-(1H-imidazol-1-yl)-3-methylbenzylidene)hydrazineyl)-6,7-dimethoxyquinoline hydrochloride] | 8.31 | – | –
9 | Clc1ccc2c(Nc3ccc(-n4ccnc4)nc3)ncnc2c1 [Compound 41, N-(6-(1H-imidazol-1-yl)pyridin-3-yl)-7-chloroquinazolin-4-amine] | – | 5.58 | 18.7
10 | CN1CCN(Cc2ccc(/C=N/Nc3ccnc4cc(Cl)ccc34)cc2)CC1 [Compound 7, (E)-7-chloro-4-(2-(4-((4-methylpiperazin-1-yl)methyl)benzylidene)hydrazinyl)quinolone] | 1.22 | – | –
11 | Cc1ncn(-c2ccc(/C=N/Nc3ccnc4cc(Cl)ccc34)cc2)c1C [Compound 2, (E)-7-chloro-4-((E)-(4-(4,5-dimethyl-1H-imidazol-1-yl)benzylidene)hydrazono)-1,4-dihydroquinoline] | 11.4 | – | –
12 | Clc1ccc2c(N/N=C/c3ccc(-n4cccn4)cc3)ccnc2c1 [Compound 3, (E)-4-((E)-(4-(1H-pyrazol-1-yl)benzylidene)hydrazono)-7-chloro-1,4-dihydroquinoline] | 8.82 | – | –
13 | C/C(=N\Nc1ncnc2cc(Cl)ccc12)c1ccc(-n2cnc(C)c2C)nc1 [Compound 16, 7-chloro-4-(2-(1-(6-(4,5-dimethyl-1H-imidazol-1-yl)pyridin-3-yl)ethylidene)hydrazineyl)quinazoline phosphate] | 9.61 | – | 2.88
14 | Clc1ccc2c(N/N=C/c3ccc(-n4ccnc4)nc3)ccnc2c1 [Compound 14, (E)-4-(2-((6-(1H-imidazol-1-yl)pyridin-3-yl)methylene)hydrazineyl)-7-chloroquinoline hydrochloride] | 1.86 | – | 18.4
15 | Cc1cc(-n2ccnc2)ccc1/C=N/Nc1ccnc2cc(Cl)ccc12 [Compound 1, (E)-4-((E)-(4-(1H-imidazol-1-yl)-2-methylbenzylidene)hydrazono)-7-chloro-1,4-dihydroquinoline] | – | 0.49 | –

— patent publication US20240398783A1, “Compounds and Pharmaceutical Compositions Comprising Inhibitors of Amyloid Peptide Interactions with Glycosaminoglycans, Methods of Treatment and Use Thereof” (Gismo Therapeutics, Inc., priority 2021, published 2024)
